Results: patent publication US11352637B2, “Methods and compositions for herbicide tolerance in plants” (MONSANTO TECHNOLOGY LLC, priority 2017, dated 2022)
Like-named read-outs stand apart in the source and are kept apart here.

What was measured:
[1] = system: KsIAA16R in combination with KsAFB6; assay: Yeast two-hybrid (Y2H) assay: KsIAA16R binding with KsAFB6 in presence of auxin; set-up: species or system Kochia scoparia
Experimental: (§1) Yeast two-hybrid (Y2H) studies were conducted using the Matchmaker® Gold Yeast Two-Hybrid System: vectors, transformation protocols and yeast strains (Clonetech Laboratories, Inc.). The coding sequences for the KsIAA16R (SEQ ID NO: 220), KsIAA16S (SEQ ID NO: 218), KsTIR1 (SEQ ID NO: 285), KsAFB6 (SEQ ID NO: 287), KsAFB2 (SEQ ID NO: 289), and KsAFB5 (SEQ ID NO: 291) were PCR amplified using primers specified in Table 2.
(§2) PCR products were gel purified and recombined into NdeI/NotI digested pGADT7 or pGBKT7 vectors using the In-Fusion® cloning system (Clonetech Laboratories, Inc.). The pGBKT7 vector contained the GAL4 DNA binding domain, rendering the fusions as the “bait,” whereas the “prey” were the fusions containing the pGADT7 vector, which contained the GAL4 activation domain. All vectors were first sequence verified and then the listed vector combinations were co-transformed into the yeast strain, Y2HGold. […] Transformants were plated on SC-Trp-Leu plates to select for those containing both plasmids. Four healthy colonies were selected at random and resuspended into 300 μL of 0.1% agar in water. Five μL of this dilution was replica spotted onto each plate. Plates were incubated at 30° C. for 3 days prior to evaluation of colony growth.
(§3) This method enabled the study of the binding/interaction of the Kochia R and S alleles of KsIAA16 with each of the Kochia TIR/AFB homologs (KsTIR1 (SEQ ID NO: 285), and KsAFB6 (SEQ ID NO: 287)) in the absence or presence of 100 μM or 500 μM exogenous concentrations of IAA, NAA, dicamba, and 2,4-D, picloram, triclopyr, quinclorac, fluroxypyr or phenylacetic acid (PAA).

[2] = system: KsIAA16 (R and S alleles) with KsTIR1 and/or KsAFB6; assay: Y2H assay, summary statements over the protein combinations tested; format: binding, Kochia scoparia; conditions: for Facilitation of interaction of KsIAA16R with KsTIR1 and/or KsAFB6: at the concentrations tested
Experimental: as §1, §2, §3

[3] = system: seedlings of the R and S Kochia biotypes; assay: Root elongation response of Kochia seedlings; format: in vivo, Kochia scoparia; conditions: for Root elongation inhibition of the R Kochia biotype: R biotype seedlings, FIG. 5
Experimental: The root elongation response of seedlings from the R and S Kochia biotypes was tested to determine if the R biotype response was consistent with the Y2H findings. For root elongation studies, plant nutrient media was used, with 0.5% sucrose. Seeds were surface sterilized in 30% bleach with 0.1% Triton-X100 for 10 to 30 minutes, then rinsed twice in sterile water and resuspended in 0.1% agar for plating. Root lengths were measured to the nearest millimeter, and the average root length of 12 individuals was calculated unless otherwise noted.

[4] = system: transgenic Arabidopsis carrying AtIAA16P:KsIAA16 constructs; assay: Root elongation inhibition assay of T2 transgenic Arabidopsis on plant nutrient plus IAA or dicamba; format: in vivo, Arabidopsis thaliana; conditions: for Root Length (in mm) of T2 transgenics on plant nutrient plus auxin / Root Length (in mm) on plant nutrient plus auxin: +5 μM auxin; for Root Length (in mm) on plant nutrient plus auxin: non-transgenic WT
Source text: To determine if the presence of the KsIAA16R allele alone was necessary and sufficient to confer dicamba resistance, several transgene expression constructs were generated for study of KsIAA16 in Arabidopsis. Agrobacterium tumefaciens was used to introduce the binary vectors in the plants using the floral dip method (Clough and Bent, 1998). Vectors contained either the ethanol inducible alcA promoter elements (Salter et al., 1998), the constitutive CaMV35S promoter, or the native Arabidopsis IAA16 promoter (AtIAA16P) driving either KsIAA16R (SEQ ID NO: 220) or KsIAA16S (SEQ ID NO: 218). GUS reporter constructs contained a 2.5 kb genomic DNA fragment from directly upstream of KsIAA16, which is expected to contain most of the promoter elements as well as the 5′UTR, driving uidA. All constructs contained either a Spectinomycin resistance gene (SPEC) or a glufosinate resistance gene (BAR) in the T-DNA region to serve as the selectable marker. For all constructs, T1 seed was harvested, surface sterilized, and plated on the appropriate selective media to identify independent T1 transformants. Single seed decent and segregation on selective media was used to estimate transgene insertion number and identify homozygous lines. For induction of the P-Alc promoter, ethanol was added to a final concentration of 0.01% just before plates were poured, and plates were used immediately. All plates were grown in a Percival growth chamber (Percival Scientific, Inc.) at 22° C. with 16 hour day/8 hour night light cycle and a light intensity of […]. Relative humidity was maintained at 50%. GUS assays were performed according to standard protocols. Briefly, a 20 mg/mL X-Gluc (GoldBio, St. Louis, Mo.) stock in dimethylformamide was diluted into 50 mM phosphate buffer, pH 7.0, to a final concentration of 1 mg/mL. This solution was added to plant tissues, and samples were placed under vacuum for 5 minutes to ensure penetration of the solution into the tissues. Samples were covered in foil to prevent light entry and place at 37° C. for 24 hours to allow color development. Staining solution was removed and chlorophyll was cleared by incubating samples in 50% ethanol for several hours.

[5] = system: KsIAA16S in combination with KsAFB6; assay: Yeast two-hybrid (Y2H) assay: KsIAA16S binding with KsAFB6 in presence of auxin; set-up: species or system Kochia scoparia; conditions: allele KsIAA16S; auxin 500 μM; yeast colony growth
Experimental: as §1
(§4) PCR products were gel purified and recombined into NdeI/NotI digested pGADT7 or pGBKT7 vectors using the In-Fusion® cloning system (Clonetech Laboratories, Inc.). The pGBKT7 vector contained the GAL4 DNA binding domain, rendering the fusions as the “bait,” whereas the “prey” were the fusions containing the pGADT7 vector, which contained the GAL4 activation domain. All vectors were first sequence verified and then the listed vector combinations were co-transformed into the yeast strain, Y2HGold. […] Transformants were plated on SC-Trp-Leu plates to select for those containing both plasmids. Four healthy colonies were selected at random and resuspended into 300 μL of 0.1% agar in water. Five μL of this dilution was replica spotted onto each plate. Plates were incubated at 30° C. for 3 days prior to evaluation of colony growth. […]

[6] = system: KsIAA16S in combination with KsTIR1; assay: Yeast two-hybrid (Y2H) assay: KsIAA16S binding with KsTIR1 in presence of auxin; set-up: species or system Kochia scoparia; conditions: allele KsIAA16S, yeast colony growth
Experimental: as §1, §4

[7] = system: KsIAA16R in combination with KsTIR1; assay: Yeast two-hybrid (Y2H) assay: KsIAA16R binding with KsTIR1 in presence of auxin; set-up: species or system Kochia scoparia; conditions: compared with KsIAA16S; concentration not given
Experimental: as §1, §4

[8] = system: Kochia F2 progeny (S/S, R/S, R/R); conditions: spray 1120 g/ha
Experimental: To determine whether the KsIAA16R allele co-segregates with the dicamba resistance phenotype, spray tests were performed on Kochia populations comprising S and R plants. Crosses between S and R individuals were performed, utilizing the S biotype as the female and the R biotype as the male in order to identify individuals resulting from cross pollination. […] Several verified heterozygous F1 plants were selected for F2 seed production. In addition, a subset of S/S and R/S individuals from the F1 generation was subjected to dicamba sprays to ensure that the marker could effectively identify the R allele.
To determine whether the KsIAA16R allele co-segregates with the dicamba resistance phenotype, 720 F2 progeny from verified heterozygous F1 parental plants were sampled and genotyped, and tolerance to a dicamba spray concentration double the typical dicamba field use rate (1120 g/ha) was determined. Plant identity was maintained throughout the experiment, and genotype and percent visible dicamba injury was determined for each of the F2 progeny.

R and S Kochia biotypes = assay: Greenhouse spray test for cross-resistance of Kochia R-biotype; format: in vivo, Kochia scoparia; conditions: all treatments, track sprayer, 10 to 15 cm tall plants
Source text: To elucidate whether the Kochia R-biotype is cross resistant to 2,4-D or fluroxypyr, greenhouse grown 10 to 15 cm tall Kochia plants were sprayed with either Dicamba at 0,140, 280, 560, 2240, 4480, 6720, 8960, or 17920 g a.e.ha^−1; 2,4-D at 0, 70, 140, 280, 560, 1120, 2240, 4480, 6720, 8960 g a.e.ha^−1 or fluroxypyr at 0, 17.5, 35, 70, 140, 280, 420, 560, 1120, 2240 g a.e.ha^−1 with a track sprayer. […]

[9] = system: dicamba resistant Kochia biotype

O=C(O)Cc1c[nH]c2ccccc12 [IAA, indole-3-acetic acid]
Ability of KsIAA16R to interact with KsAFB6 in the presence of the auxin ([1]; only the higher concentration could facilitate binding): reduced ability to interact | Facilitation of interaction of KsIAA16R with KsTIR1 and/or KsAFB6 [2]: can facilitate some interaction | Root elongation inhibition of the R Kochia biotype [3]: remained sensitive | Root Length (in mm) of T2 transgenics on plant nutrient plus auxin ([4]; line AtIAA16P:KsIAA16R_T2-1): 12.17 ± 1.01 mm | Root Length (in mm) of T2 transgenics on plant nutrient plus auxin ([4]; line AtIAA16P:KsIAA16R_T2-2): 18.17 ± 3.09 mm | Root Length (in mm) of T2 transgenics on plant nutrient plus auxin ([4]; line AtIAA16P:KsIAA16R_T2-3): 22.75 ± 2.09 mm | Root Length (in mm) of T2 transgenics on plant nutrient plus auxin ([4]; line AtIAA16P:KsIAA16R_T2-4): 27.25 ± 1.88 mm | Root Length (in mm) of T2 transgenics on plant nutrient plus auxin ([4]; line AtIAA16P:KsIAA16S_T2-1): 7.0 ± 0.77 mm | Root Length (in mm) of T2 transgenics on plant nutrient plus auxin ([4]; line AtIAA16P:KsIAA16S_T2-2): 9.5 ± 0.84 mm | Root Length (in mm) of T2 transgenics on plant nutrient plus auxin ([4]; line AtIAA16P:KsIAA16S_T2-3): 5.67 ± 0.54 mm | Root Length (in mm) of T2 transgenics on plant nutrient plus auxin ([4]; line AtIAA16P:KsIAA16S_T2-4): 5 ± 0.34 mm | Root Length (in mm) on plant nutrient plus auxin [4]: 5.83 ± 0.24 mm | Resistance to root inhibition ([4]; several lines from both constructs): slight resistance

O=C(O)c1c(Cl)ccc2cc(Cl)cnc12 [Quinclorac, 3,7-dichloro-8-quinolinecarboxylic acid]
Ability to bind in combination with KsAFB6 [5]: observed to interact | Interaction between KsIAA16R and KsAFB6 in the presence of the auxin ([1]; at the concentrations tested): not observed | Facilitation of interaction of KsIAA16R with KsTIR1 and/or KsAFB6 [2]: cannot

COc1c(Cl)ccc(Cl)c1C(=O)O [Dicamba, 3,6-dichloro-2-methoxybenzoic acid]
Ability to bind in combination with KsTIR1 ([6]; auxin [100 mM] (text: 100 μM)): exhibited interaction | Ability to bind in combination with KsTIR1 ([6]; auxin [500 mM] (text: 500 μM)): exhibited interaction | Ability of KsIAA16R to interact with KsTIR1 in the presence of the auxin [7]: decreased ability to interact | Facilitation of interaction of KsIAA16R with KsTIR1 and/or KsAFB6 [2]: cannot | Root elongation inhibition of the R Kochia biotype [3]: resistant | mean injury rating ([8]; R/R individuals): 24.6% | mean injury rating ([8]; R/S individuals): 35.9% | mean injury rating ([8]; S/S individuals): 82.3% | average injury per genotype (percent visible dicamba injury) ([8]; genotype R/R): about 20% | average injury per genotype (percent visible dicamba injury) ([8]; genotype R/S): about 40% | average injury per genotype (percent visible dicamba injury) ([8]; genotype S/S): about 80% | Resistance in root elongation inhibition assay ([4]; four independent transformant lines carrying AtIAA16P:KsIAA16R): showed resistance | Root Length (in mm) of T2 transgenics on plant nutrient plus auxin ([4]; line AtIAA16P:KsIAA16R_T2-1): 12.42 ± 1.27 mm | Root Length (in mm) of T2 transgenics on plant nutrient plus auxin ([4]; line AtIAA16P:KsIAA16R_T2-2): 15.5 ± 1.45 mm | Root Length (in mm) of T2 transgenics on plant nutrient plus auxin ([4]; line AtIAA16P:KsIAA16R_T2-3): 15.58 ± 1.57 mm | Root Length (in mm) of T2 transgenics on plant nutrient plus auxin ([4]; line AtIAA16P:KsIAA16R_T2-4): 17.5 ± 2.12 mm | Root Length (in mm) of T2 transgenics on plant nutrient plus auxin ([4]; line AtIAA16P:KsIAA16S_T2-1): 13.50 ± 1.01 mm | Root Length (in mm) of T2 transgenics on plant nutrient plus auxin ([4]; line AtIAA16P:KsIAA16S_T2-2): 11.42 ± 1.28 mm | Root Length (in mm) of T2 transgenics on plant nutrient plus auxin ([4]; line AtIAA16P:KsIAA16S_T2-3): 14.17 ± 0.9 mm | Root Length (in mm) of T2 transgenics on plant nutrient plus auxin ([4]; line AtIAA16P:KsIAA16S_T2-4): 10.67 ± 0.72 mm | Root Length (in mm) on plant nutrient plus auxin [4]: 9.08 ± 0.66 mm | Resistance in root elongation inhibition assay ([4]; only one of the four lines carrying AtIAA16P:KsIAA16S): very slight resistance | Visible injury at 14 days after treatment (DAT) (R and S Kochia biotypes): observed | fold increase in dicamba resistance [9]: ~30 fold

O=C(O)Cc1ccccc1 [PAA, phenylacetic acid]
Y2H interaction in the presence of the auxin ([2]; any of the protein combinations tested): No interaction | Effect on root elongation ([3]; Kochia seedlings, biotype not stated): had an effect on root elongation
